# Data from PMC8813873, “The HGR motif is the antiangiogenic determinant of vasoinhibin: implications for a therapeutic orally active oligopeptide” (Angiogenesis, 2021).
# Read-outs that look alike come from different tables or passages of the source. Square brackets hold non-standard residues; d marks the D form. Ends that are not written are not given here. Peptide text beside a SMILES is read from it.
# How the values were obtained:
# [1] = tested on: B16-F10 cells; experiment: B16-F10 cell growth in vitro (cell counting); assay type: cell-based, mouse; details: 100 nM added every 24 h, cell density over time, n = 9
# Protocol: (§1) Endothelial cell proliferation. BUVEC-E6E7 cells seeded at 14,000 cells cm^-2 in a 96-well plate were starved with 0.1% FBS for 24 h and treated or not with VEGF (50 ng mL^-1) in starvation medium with or without different concentrations of five peptides synthesized along the 45 to 58 residue sequence of human PRL or with recombinant vasoinhibin of 123 amino acids (positive control). HUVEC cells were seeded at 14,000 cells cm^-2 in a 96-well plate for 24 h and starved with 0.5% FBS for 12 h. […] DNA synthesis was quantified by the DNA incorporation of the thymidine analogue 5-ethynyl-2’-deoxyuridine (EdU, Sigma) added at the time of treatments and labelled by the click reaction with fluorescent Azide Fluor 545 (Sigma-Aldrich) as reported. Images were obtained in a fluorescent inverted microscope (Olympus IX51, Japan) and quantified using the CellProfiler software. The number of EdU-positive cells over total DNA (Hoechst)-stained cells was expressed as percentage proliferation. […] Cells were trypsinized and counted.
# [2] = tested on: HUVEC; details: for Span: span of fitted dose-response curve, VEGF + bFGF-induced HUVEC proliferation relative to lowest and highest dose of CRIVi45-51
# Protocol: HUVEC were seeded at 14,000 cells cm^−2 in a 96-well plate and, after 24 h, starved with 0.5% FBS for 12 h. The medium was refreshed with 20% FBS-F12K and incubated with 100 μg mL^−1 heparin together with 25 ng mL^−1 VEGF and 20 ng mL^−1 bFGF for 24 h in combination with a single dose (100 nM) or different concentrations of PRL, vasoinhibin, or synthetic oligopeptides. DNA synthesis was quantified by the DNA incorporation of the thymidine analog 5-ethynyl-2’-deoxyuridine (EdU, Sigma) labeled by the click reaction with fluorescent Azide Fluor 545 (Sigma-Aldrich) as reported.
# Endothelial cell proliferation. BUVEC-E6E7 cells seeded at 14,000 cells cm^-2 in a 96-well plate were starved with 0.1% FBS for 24 h and treated or not with VEGF (50 ng mL^-1) in starvation medium with or without different concentrations of five peptides synthesized along the 45 to 58 residue sequence of human PRL or with recombinant vasoinhibin of 123 amino acids (positive control). HUVEC cells were seeded at 14,000 cells cm^-2 in a 96-well plate for 24 h and starved with 0.5% FBS for 12 h. Medium was then replaced by 20% FBS-F12K and 100 μg mL^-1 heparin containing or not VEGF (25 ng mL^-1), bFGF (20 ng mL^-1), IL-1b (10 ng mL^-1), or BK (10 μM) or a combination of 25 ng mL^-1 of VEGF and 20 ng mL^-1 of bFGF for 24 h in the presence or absence of a single dose (100 nM) or different doses of PRL (negative control), recombinant vasoinhibin, Vi45-51, synthetic peptides having the same residue composition as the 45-51 segment but in scrambled order (negative control), Vi45-51 subjected to alanine scanning mutagenesis, a tripeptide comprising residues 46 to 48 of vasoinhibin (Vi46-48), a Vi45-51 where G47 was deleted (des-G^47), a conserved version of the Vi45-51 (cVi45-51) and the QGR tripeptide, heptapeptides comprising residues 39 to 45 of growth hormone (GH39-45) or placental lactogen (PL39-45), tripeptides EQK and QKY, the dipeptide QK (Table S2), alanine mutants of the vasoinhibin with 123 residues (Vi-H46A, Vi-R48A, Vi-H46A/R48A), alanine mutants of PRL (PRL-E161A, PRL-E162A, PRL-E161A/E162A), CRIVi45-51, antiangiogenic proteins (endostatin, angiostatin), antiangiogenic oligopeptides (anginex, cilengitide), or antiangiogenic tyrosine-kinase inhibitors (pazopanib, sunitinib, sorafenib). DNA synthesis was quantified by the DNA incorporation of the thymidine analogue 5-ethynyl-2’-deoxyuridine (EdU, Sigma) added at the time of treatments and labelled by the click reaction with fluorescent Azide Fluor 545 (Sigma-Aldrich) as reported. Images were obtained in a fluorescent inverted microscope (Olympus IX51, Japan) and quantified using the CellProfiler software. The number of EdU-positive cells over total DNA (Hoechst)-stained cells was expressed as percentage proliferation. B16-F10 cells and HUVEC were seeded at 12,600 cells cm^-2 and 7,400 cells cm^-2, respectively, in a 24-well plate and incubated for different times in complete medium in the absence or presence of 100 nM CRIVi45-51 added every 24 h. Cells were trypsinized and counted.
# [3] = tested on: HUVEC; experiment: HUVEC cell density over time (cell counting); assay type: cell-based, human; details: 100 nM added every 24 h, complete medium, n = 9
# Protocol: as §1
# [4] = tested on: B16-F10 melanoma tumors; experiment: B16-F10 melanoma tumor model; assay type: in vivo; details: C57BL6 mice
# Protocol: The mouse model of primary tumor development based on the use of B16-F10 melanoma cells was used as previously reported. Briefly, anesthetized female C57BL6 mice (8–12 weeks-old) were inoculated into their right flank with 10^5 B16-F10 cells. Five days after tumor cell inoculation, mice were treated daily with vehicle (NS) or CRIVi45–51 injected into the lateral tail vein or via intragastric gavage for the 8 d following tumor cell injection. Animals were then euthanized by cervical dislocation and the tumors weighted and processed to evaluate blood vessels by immunofluorescence or RT-qPCR.
# Tumor model. Female C57BL6 mice (8-12 weeks-old) under 2.5% isoflurane anesthesia (SomnoSuite system, Kent Scientific, Torrington, CT) were inoculated into their right flank with 10^5 B16-F10 cells in 50 μL PBS. Tumor length and width were measured daily, and volume was estimated by the formula: Volume = (length x width^2) x 0.5. Five days after tumor cell inoculation, mice were injected daily into the lateral tail vein with vehicle (normal saline) or 0.1 or 1.0 mg kg^-1 CRIVi45-51, and tumor volumes were assessed daily for the following 8 d. In other experiments, 1.0 mg kg^-1 CRIVi45-51 or vehicle was delivered daily intragastrically through a 20G x 1.5’’ curved metal gavage canula (Cadence Science, Staunton, VA) for the 8 d following tumor cell injection. Animals were then euthanized by cervical dislocation and the tumors processed or frozen to evaluate blood vessels by immunofluorescence or RT-qPCR, respectively. […] Tumor sections were cover-slipped with Vectashield H-1000 (Vector Laboratories) and digitalized at 20X and 40X magnification under a fluorescence microscope (Olympus BX60). The number of vessels per tumor area measured vascular density. CD-31 and VE-Cad mRNA levels were quantified by RT-qPCR following the method already described in the retinal angiogenesis assay section.
# [5] = Heat treatment, residual antiproliferative activity; assay type: physicochemical; details: 2 μM solution, 97 °C, 15 min; read-out inhibition of VEGF + bFGF-induced HUVEC proliferation at 10 nM, n = 9
# [6] = target: pepsin (Sus scrofa, UniProt P00791); experiment: Pepsin digestion, residual antiproliferative activity; details: 4 μM, 1:20 protease to substrate molar ratio, 40 mM HCl, 37 °C, 5 h; read-out inhibition of VEGF + bFGF-induced HUVEC proliferation at 10 nM, n = 9
# Sequence of pepsin (P00791 60-385): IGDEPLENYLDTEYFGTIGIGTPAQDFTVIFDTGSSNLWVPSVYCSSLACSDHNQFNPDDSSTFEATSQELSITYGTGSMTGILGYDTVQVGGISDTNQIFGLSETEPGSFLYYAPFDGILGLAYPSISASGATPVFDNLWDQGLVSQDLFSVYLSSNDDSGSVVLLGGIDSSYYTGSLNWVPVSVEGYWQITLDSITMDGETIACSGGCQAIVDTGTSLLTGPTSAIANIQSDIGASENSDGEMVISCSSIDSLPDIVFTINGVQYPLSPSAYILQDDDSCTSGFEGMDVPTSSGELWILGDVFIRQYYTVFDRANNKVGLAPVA
# [7] = VEGF 25 ng/mL + bFGF 20 ng/mL-induced HUVEC proliferation, 24 h, EdU incorporation, non-linear best fit, n = 9
molecule,measurement,setting,value
"CC[C@@H](C)[C@H]1NC(=O)[C@@H]([C@H](C)O)NC(=O)[C@@H](Cc2c[nH]cn2)NC(=O)CNC(=O)[C@@H](CCCNC(=N)N)NC(=O)CNC(=O)[C@@H](Cc2ccccc2)NC1=O [CRIVi45–51, cyclic-retro-inverse-vasoinhibin-(45–51)-peptide] (cyclo([dI][dF]G[dR]G[dH][dT]))",growth of melanoma cells in vitro,[1],did not inhibit
same,fold lower IC50 than other antiangiogenic proteins (endostatin and angiostatin) and peptides (anginex and cilengitide),"[2]; ratio of IC50 values, VEGF + bFGF-induced HUVEC proliferation",2.7- to 214 fold
same,Span,"[2]; non-linear best fit, n = 9",86.86%
same,HUVEC cell density over time,[3],reduces proliferation
same,"tumor growth, oral administration","[4]; B16-F10, 1.0 mg/kg daily intragastric gavage, 8 d, n = 9",decreased tumor growth with similar efficacy to intravenous delivery
same,"tumor growth, intravenous","[4]; B16-F10, daily i.v. 0.1 or 1.0 mg/kg for 8 d from day 5, n = 9",reduced tumor growth in a dose-related manner
same,tumor vascular density and expression of CD31,"[4]; B16-F10 tumors, daily i.v., n = 9",reduce
same,activity after heat inactivation,[5],retained full activity
same,resistance to pepsin degradation,[6],resistant
"Cc1ccc(Nc2nccc(N(C)c3ccc4c(C)n(C)nc4c3)n2)cc1S(N)(=O)=O [Pazopanib, reference compound]",Span,"[2]; non-linear best fit, n = 9",83.73%
"CNC(=O)c1cc(Oc2ccc(NC(=O)Nc3ccc(Cl)c(C(F)(F)F)c3)cc2)ccn1 [Sorafenib, reference compound]",Span,"[2]; non-linear best fit, n = 9",106.00%
"CCN(CC)CCNC(=O)c1c(C)[nH]c(/C=C2\C(=O)Nc3ccc(F)cc32)c1C [Sunitinib, reference compound]",Span,"[2]; non-linear best fit, n = 9",93.64%
"ANIKLSVQMKLFKRHLKWKIIVKLNDGRELSLD [Anginex, reference compound]",Span,"[2]; non-linear best fit, n = 9",73.13%
"Ac-THGRGFI-NH2 [Vi45–51, vasoinhibin-(45-51)-peptide]",IC50,[2]; 24 h,~0.15 nM
Angiostatin,IC50,[2]; [7],0.388 nM
same,Span,"[2]; non-linear best fit, n = 9",68.47%
Endostatin,IC50,[2]; [7],31.2 nM
same,Span,"[2]; non-linear best fit, n = 9",49.98%
"PRL: Recombinant human prolactin (protein, UniProt P01236 29-227, looked up) Prolactin: LPICPGGAARCQVTLRDLFDRAVVLSHYIHNLSSEMFSEFDKRYTHGRGFITKAINSCHTSSLATPEDKEQAQQMNQKDFLSLIVSILRSWNEPLYHLVTEVRGMQEAPEAILSKAVEIEEQTKRLLEGMELIVSQVHPETKENEIYPVWSGLPSLQMADEESRLSAYYNLLHCLRRDSHKIDNYLKLLKCRIIHNNNC",dose-response inhibition of VEGF + bFGF-induced HUVEC proliferation (result in words),"[2]; VEGF 25 ng/mL + bFGF 20 ng/mL, 24 h, EdU, n = 9",not antiangiogenic
